Legend:
[1] = tested on: IPOHE (Ipomoea hederacea); assay: Postemergence herbicidal evaluation; type: in vivo, (L.) Jacq.; conditions: postemergence
Outline: (§1)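 Visual 0–9 injury scores versus control plants, covering stand, vigour, malformation, size, chlorosis and general appearance, taken four to five weeks post-spray and averaged over replicate tests. Plants were sprayed at roughly two weeks old and held on greenhouse benches.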

[2] = tested on: ECHCG (Echinochloa crus-galli); assay: Postemergence herbicidal evaluation; type: in vivo, (L.) Beau; conditions: postemergence
Outline: as §1

SETVI (Setaria viridis) [3] = assay: Postemergence herbicidal evaluation; type: in vivo, (L.) Beau; conditions: postemergence
Outline: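 Seedlings grown about two weeks were sprayed with compound in 50/50 acetone/water containing 0.5% TWEEN 20, at about 0.0040 to 1.000 kg/ha via nozzle at 40 psi. Plants were kept under greenhouse conditions and visually rated on a 0-9 scale versus control four to five weeks after treatment; replicate tests averaged.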

[4] = tested on: GLXMAW (Soybean, Williams); assay: Postemergence herbicidal evaluation; type: in vivo, Glycine max, (L.) Merr. cv Williams; conditions: postemergence
Outline: as §1

ORYSAT (Rice, Tebonnet) [5] = assay: Postemergence herbicidal evaluation; type: in vivo, Oryza sativa, (L.) Tebonnet; conditions: postemergence
Outline: as §1

[6] = tested on: TRZAWR (Wheat, Winter, cv Riband); assay: Postemergence herbicidal evaluation; type: in vivo, Triticum aestivum; conditions: postemergence
Outline: as §1

ZEAMX (Corn, Field) = assay: Postemergence herbicidal evaluation; type: in vivo, Zea mays, L.; conditions: postemergence
Outline: as §1

[7] = tested on: ABUTH (Abutilon theophrasti); assay: Preemergence herbicidal evaluation; type: in vivo, Medic.; conditions: rated 4-5 weeks after treatment
[8] = tested on: AMBEL (Ambrosia artemisifolia); assay: Preemergence herbicidal evaluation; type: in vivo, L.; conditions: rated 4-5 weeks after treatment
Outline: (§2)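 Rating 0–9, visual, vs control; 4–5 wk after spraying seeded cups with compound in aq. acetone; conventional greenhouse care.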

[9] = tested on: CASOB (Cassia obtusifolia); assay: Preemergence herbicidal evaluation; type: in vivo, L.; conditions: rated 4-5 weeks after treatment
Outline: as §2

[10] = tested on: CHEAL (Chenopodium album); assay: Preemergence herbicidal evaluation; type: in vivo, L.; conditions: rated 4-5 weeks after treatment
Outline: as §2

GALAP (Galium aparine) = assay: Preemergence herbicidal evaluation; type: in vivo; conditions: rated 4-5 weeks after treatment
Outline: as §2

[11] = tested on: ECHCG (Echinochloa crus-galli); assay: Preemergence herbicidal evaluation; type: in vivo, (L.) Beau; conditions: rated 4-5 weeks after treatment
Outline: as §2

SETVI (Setaria viridis) [12] = assay: Preemergence herbicidal evaluation; type: in vivo, (L.) Beau; conditions: rated 4-5 weeks after treatment
Outline: as §2

ORYSAT (Rice, Tebonnet) [13] = assay: Preemergence herbicidal evaluation; type: in vivo, Oryza sativa, (L.) Tebonnet; conditions: rated 4-5 weeks after treatment
[14] = tested on: TRZAWR (Wheat, Winter, cv Riband); assay: Preemergence herbicidal evaluation; type: in vivo, Triticum aestivum; conditions: rated 4-5 weeks after treatment
Outline: as §2

[15] = tested on: ECHORC (Echinochloa oryzoides); assay: Flooded paddy, preemergence weed control; type: in vivo, Echinochloa oryzoides (Ard.) Fritsch.; conditions: rated 3-4 weeks after treatment, 0-9 rating scale
Outline: (§3)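 Flooded silt loam pots, seeds in upper 0.5 cm, water held 1.5–3 cm deep; greenhouse; visual 0-9 score vs control.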

[16] = tested on: MOOVA (Monochoria vaginalis); assay: Flooded paddy, preemergence weed control; type: in vivo, Presl.; conditions: rated 3-4 weeks after treatment, 0-9 rating scale
Outline: as §3

Cc1cnn(-c2nsc3ccc(-n4c(=O)cc(C(F)(F)F)n(C)c4=O)cc23)c1 [Compound 59, 1-methyl-3-[3-(4-methylpyrazol-1-yl)-1,2-benzisothiazol-5-yl]-6-(trifluoromethyl)uracil]
IPOHE herbicidal rating ([1]; rate 0.0320 kg/ha): 8.0 | IPOHE herbicidal rating ([1]; rate 0.0620 kg/ha): 8.0 | IPOHE herbicidal rating ([1]; rate 0.1250 kg/ha): 9.0 | ECHCG herbicidal rating ([2]; rate 0.0320 kg/ha): 0.0 | ECHCG herbicidal rating ([2]; rate 0.0620 kg/ha): 0.0 | ECHCG herbicidal rating ([2]; rate 0.1250 kg/ha): 3.0 | SETVI herbicidal rating (SETVI (Setaria viridis) [3]; rate 0.0320 kg/ha): 0.0 | SETVI herbicidal rating (SETVI (Setaria viridis) [3]; rate 0.1250 kg/ha): 3.0 | GLXMAW herbicidal rating ([4]; rate 0.0320 kg/ha): 7.5 | GLXMAW herbicidal rating ([4]; rate 0.0620 kg/ha): 7.5 | GLXMAW herbicidal rating ([4]; rate 0.1250 kg/ha): 8.0 | ORYSAT herbicidal rating (ORYSAT (Rice, Tebonnet) [5]; rate 0.0320 kg/ha): 2.0 | ORYSAT herbicidal rating (ORYSAT (Rice, Tebonnet) [5]; rate 0.0620 kg/ha): 2.5 | ORYSAT herbicidal rating (ORYSAT (Rice, Tebonnet) [5]; rate 0.1250 kg/ha): 2.5 | TRZAWR herbicidal rating ([6]; rate 0.0320 kg/ha): 3.0 | TRZAWR herbicidal rating ([6]; rate 0.0620 kg/ha): 3.5 | TRZAWR herbicidal rating ([6]; rate 0.1250 kg/ha): 4.0 | ZEAMX herbicidal rating (ZEAMX (Corn, Field); rate 0.0320 kg/ha): 5.5 | ZEAMX herbicidal rating (ZEAMX (Corn, Field); rate 0.0620 kg/ha): 6.5 | ZEAMX herbicidal rating (ZEAMX (Corn, Field); rate 0.1250 kg/ha): 7.0 | Preemergence herbicidal rating ABUTH ([7]; Rate 0.0620 kg/ha): 0.0 | Preemergence herbicidal rating ABUTH ([7]; Rate 0.1250 kg/ha): 9.0 | Preemergence herbicidal rating ABUTH ([7]; Rate 0.2500 kg/ha): 7.0 | Preemergence herbicidal rating AMBEL ([8]; Rate 0.0620 kg/ha): 0.0 | Preemergence herbicidal rating AMBEL ([8]; Rate 0.1250 kg/ha): 5.0 | Preemergence herbicidal rating AMBEL ([8]; Rate 0.2500 kg/ha): 6.0 | Preemergence herbicidal rating CASOB ([9]; Rate 0.0620 kg/ha): 0.0 | Preemergence herbicidal rating CASOB ([9]; Rate 0.1250 kg/ha): 0.0 | Preemergence herbicidal rating CASOB ([9]; Rate 0.2500 kg/ha): 0.0 | Preemergence herbicidal rating CHEAL ([10]; Rate 0.0620 kg/ha): 9.0 | Preemergence herbicidal rating CHEAL ([10]; Rate 0.1250 kg/ha): 9.0 | Preemergence herbicidal rating CHEAL ([10]; Rate 0.2500 kg/ha): 9.0 | Preemergence herbicidal rating GALAP (GALAP (Galium aparine); Rate 0.0620 kg/ha): 5.0 | Preemergence herbicidal rating GALAP (GALAP (Galium aparine); Rate 0.1250 kg/ha): 5.0 | Preemergence herbicidal rating GALAP (GALAP (Galium aparine); Rate 0.2500 kg/ha): 4.0 | Preemergence herbicidal rating ECHCG ([11]; Rate 0.0620 kg/ha): 2.0 | Preemergence herbicidal rating ECHCG ([11]; Rate 0.1250 kg/ha): 3.0 | Preemergence herbicidal rating ECHCG ([11]; Rate 0.2500 kg/ha): 7.0 | Preemergence herbicidal rating SETVI (SETVI (Setaria viridis) [12]; Rate 0.0620 kg/ha): 6.0 | Preemergence herbicidal rating SETVI (SETVI (Setaria viridis) [12]; Rate 0.1250 kg/ha): 6.0 | Preemergence herbicidal rating SETVI (SETVI (Setaria viridis) [12]; Rate 0.2500 kg/ha): 9.0 | Preemergence herbicidal rating ORYSAT (ORYSAT (Rice, Tebonnet) [13]; Rate 0.0620 kg/ha): 1.0 | Preemergence herbicidal rating ORYSAT (ORYSAT (Rice, Tebonnet) [13]; Rate 0.1250 kg/ha): 2.0 | Preemergence herbicidal rating ORYSAT (ORYSAT (Rice, Tebonnet) [13]; Rate 0.2500 kg/ha): 2.0 | Preemergence herbicidal rating TRZAWR ([14]; Rate 0.0620 kg/ha): 1.0 | Preemergence herbicidal rating TRZAWR ([14]; Rate 0.1250 kg/ha): 2.0 | Preemergence herbicidal rating TRZAWR ([14]; Rate 0.2500 kg/ha): 2.0 | herbicidal rating, ECHORC ([15]; rate 0.0080 kg/ha): 0.0 | herbicidal rating, ECHORC ([15]; rate 0.0320 kg/ha): 0.0 | herbicidal rating, ECHORC ([15]; rate 0.1250 kg/ha): 3.0 | herbicidal rating, MOOVA ([16]; rate 0.0080 kg/ha): 0.0 | herbicidal rating, MOOVA ([16]; rate 0.0320 kg/ha): 3.0 | herbicidal rating, MOOVA ([16]; rate 0.1250 kg/ha): 9.0

Cn1c(C(F)(F)F)cc(=O)n(-c2ccc3snc(-c4ccco4)c3c2)c1=O [Compound 60, 3-[3-(2-furyl)-1,2-benzisothiazol-5-yl]-1-methyl-6-(trifluoromethyl)uracil]
IPOHE herbicidal rating ([1]; rate 0.0320 kg/ha): 9.0 | IPOHE herbicidal rating ([1]; rate 0.0620 kg/ha): 9.0 | ECHCG herbicidal rating ([2]; rate 0.0320 kg/ha): 2.0 | ECHCG herbicidal rating ([2]; rate 0.0620 kg/ha): 2.0 | SETVI herbicidal rating (SETVI (Setaria viridis) [3]; rate 0.0320 kg/ha): 3.0 | SETVI herbicidal rating (SETVI (Setaria viridis) [3]; rate 0.0620 kg/ha): 2.0 | GLXMAW herbicidal rating ([4]; rate 0.0320 kg/ha): 5.0 | GLXMAW herbicidal rating ([4]; rate 0.0620 kg/ha): 7.0 | ORYSAT herbicidal rating (ORYSAT (Rice, Tebonnet) [5]; rate 0.0320 kg/ha): 3.5 | ORYSAT herbicidal rating (ORYSAT (Rice, Tebonnet) [5]; rate 0.0620 kg/ha): 4.0 | TRZAWR herbicidal rating ([6]; rate 0.0320 kg/ha): 4.0 | TRZAWR herbicidal rating ([6]; rate 0.0620 kg/ha): 4.5 | ZEAMX herbicidal rating (ZEAMX (Corn, Field); rate 0.0320 kg/ha): 5.5 | ZEAMX herbicidal rating (ZEAMX (Corn, Field); rate 0.0620 kg/ha): 6.0 | Preemergence herbicidal rating ABUTH ([7]; Rate 0.0620 kg/ha): 5.0 | Preemergence herbicidal rating ABUTH ([7]; Rate 0.1250 kg/ha): 5.0 | Preemergence herbicidal rating ABUTH ([7]; Rate 0.2500 kg/ha): 9.0 | Preemergence herbicidal rating AMBEL ([8]; Rate 0.0620 kg/ha): 0.0 | Preemergence herbicidal rating AMBEL ([8]; Rate 0.1250 kg/ha): 5.0 | Preemergence herbicidal rating AMBEL ([8]; Rate 0.2500 kg/ha): 9.0 | Preemergence herbicidal rating CASOB ([9]; Rate 0.0620 kg/ha): 0.0 | Preemergence herbicidal rating CASOB ([9]; Rate 0.1250 kg/ha): 0.0 | Preemergence herbicidal rating CASOB ([9]; Rate 0.2500 kg/ha): 0.0 | Preemergence herbicidal rating CHEAL ([10]; Rate 0.0620 kg/ha): 7.0 | Preemergence herbicidal rating CHEAL ([10]; Rate 0.1250 kg/ha): 9.0 | Preemergence herbicidal rating CHEAL ([10]; Rate 0.2500 kg/ha): 9.0 | Preemergence herbicidal rating GALAP (GALAP (Galium aparine); Rate 0.0620 kg/ha): 6.0 | Preemergence herbicidal rating GALAP (GALAP (Galium aparine); Rate 0.1250 kg/ha): 7.0 | Preemergence herbicidal rating GALAP (GALAP (Galium aparine); Rate 0.2500 kg/ha): 9.0 | Preemergence herbicidal rating ECHCG ([11]; Rate 0.0620 kg/ha): 1.0 | Preemergence herbicidal rating ECHCG ([11]; Rate 0.1250 kg/ha): 6.0 | Preemergence herbicidal rating ECHCG ([11]; Rate 0.2500 kg/ha): 7.0 | Preemergence herbicidal rating SETVI (SETVI (Setaria viridis) [12]; Rate 0.0620 kg/ha): 3.0 | Preemergence herbicidal rating SETVI (SETVI (Setaria viridis) [12]; Rate 0.1250 kg/ha): 7.0 | Preemergence herbicidal rating SETVI (SETVI (Setaria viridis) [12]; Rate 0.2500 kg/ha): 9.0 | Preemergence herbicidal rating ORYSAT (ORYSAT (Rice, Tebonnet) [13]; Rate 0.0620 kg/ha): 1.0 | Preemergence herbicidal rating ORYSAT (ORYSAT (Rice, Tebonnet) [13]; Rate 0.1250 kg/ha): 4.0 | Preemergence herbicidal rating ORYSAT (ORYSAT (Rice, Tebonnet) [13]; Rate 0.2500 kg/ha): 6.0 | Preemergence herbicidal rating TRZAWR ([14]; Rate 0.0620 kg/ha): 1.0 | Preemergence herbicidal rating TRZAWR ([14]; Rate 0.1250 kg/ha): 4.0 | Preemergence herbicidal rating TRZAWR ([14]; Rate 0.2500 kg/ha): 6.0 | herbicidal rating, ECHORC ([15]; rate 0.0080 kg/ha): 1.5 | herbicidal rating, ECHORC ([15]; rate 0.0320 kg/ha): 4.0 | herbicidal rating, ECHORC ([15]; rate 0.1250 kg/ha): 7.0 | herbicidal rating, MOOVA ([16]; rate 0.0080 kg/ha): 0.0 | herbicidal rating, MOOVA ([16]; rate 0.0320 kg/ha): 9.0 | herbicidal rating, MOOVA ([16]; rate 0.1250 kg/ha): 9.0

From patent US6706663B2, “Herbicidal 3-heterocyclic substituted benzisothiazole and benzisoxazole compounds” (Wyeth, priority 2000, dated 2004)
